{
  "source": "paper PMC7673538",
  "about": "(PLoS Biology, 2020)",
  "key": {"human DAT": {"target": "T1, human DAT (Homo sapiens, UniProt Q01959)", "T1 construct": "expressed in transfected cells; host or cells: HEK293 (gift of Dr. Hoener, F. Hoffmann-La Roche)", "T1 sequence (Q01959 whole entry)": "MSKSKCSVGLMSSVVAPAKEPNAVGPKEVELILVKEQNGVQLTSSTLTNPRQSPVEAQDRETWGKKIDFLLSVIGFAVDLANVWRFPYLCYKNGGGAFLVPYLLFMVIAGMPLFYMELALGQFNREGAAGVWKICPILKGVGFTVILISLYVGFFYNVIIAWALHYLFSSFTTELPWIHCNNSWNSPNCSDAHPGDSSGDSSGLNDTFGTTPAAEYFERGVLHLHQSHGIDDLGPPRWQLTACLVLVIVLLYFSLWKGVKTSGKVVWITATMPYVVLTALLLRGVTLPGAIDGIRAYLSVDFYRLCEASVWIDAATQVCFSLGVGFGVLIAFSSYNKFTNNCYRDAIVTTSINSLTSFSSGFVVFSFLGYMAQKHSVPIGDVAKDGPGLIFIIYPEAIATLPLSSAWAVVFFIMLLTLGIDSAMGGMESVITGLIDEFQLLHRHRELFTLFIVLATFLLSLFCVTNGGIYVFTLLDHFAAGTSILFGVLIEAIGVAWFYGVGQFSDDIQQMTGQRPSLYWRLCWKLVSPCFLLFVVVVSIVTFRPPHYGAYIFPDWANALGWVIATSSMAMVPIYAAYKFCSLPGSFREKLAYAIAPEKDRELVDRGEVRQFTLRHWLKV", "assay_type": "cell-based", "details": "for DAT, Mean (Figure 8B): Control = 100; for DAT, Mean as % (Figure 8B): Control = 100%"}, "human SERT": {"target": "T2, human SERT (Homo sapiens, UniProt P31645)", "T2 construct": "expressed in transfected cells; host or cells: HEK293 (gift of Dr. Hoener, F. Hoffmann-La Roche)", "T2 sequence (P31645 whole entry)": "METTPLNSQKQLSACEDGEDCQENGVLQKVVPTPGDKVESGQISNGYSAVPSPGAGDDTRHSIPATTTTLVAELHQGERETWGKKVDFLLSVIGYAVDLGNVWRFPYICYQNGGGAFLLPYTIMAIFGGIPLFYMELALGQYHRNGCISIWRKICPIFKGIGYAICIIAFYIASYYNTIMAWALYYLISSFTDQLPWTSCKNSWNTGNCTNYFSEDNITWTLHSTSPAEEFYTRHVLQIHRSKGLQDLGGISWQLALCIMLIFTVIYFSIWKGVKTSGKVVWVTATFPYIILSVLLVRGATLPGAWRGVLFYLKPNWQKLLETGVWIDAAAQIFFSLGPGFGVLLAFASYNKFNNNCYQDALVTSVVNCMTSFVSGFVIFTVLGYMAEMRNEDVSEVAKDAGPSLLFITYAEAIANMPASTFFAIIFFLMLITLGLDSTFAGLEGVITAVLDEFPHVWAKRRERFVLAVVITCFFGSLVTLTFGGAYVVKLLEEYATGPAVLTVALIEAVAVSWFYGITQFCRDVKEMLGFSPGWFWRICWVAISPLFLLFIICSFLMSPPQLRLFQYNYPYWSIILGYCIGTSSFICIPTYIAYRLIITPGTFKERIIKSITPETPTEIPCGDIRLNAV", "assay_type": "cell-based"}, "CV-B3": {"test_system": "CV-B3", "assay": "microbe, parasite or virus in culture", "assay_type": "cell-based, coxsackievirus B3", "details": "Enterovirus B"}, "EV-D68": {"test_system": "EV-D68", "assay": "microbe, parasite or virus in culture", "assay_type": "cell-based, enterovirus D68", "details": "for EC50: Enterovirus D"}, "HRV-B14": {"test_system": "HRV-B14", "assay": "microbe, parasite or virus in culture", "assay_type": "cell-based, human rhinovirus", "details": "Human rhinovirus sp."}, "EV-A71": {"test_system": "EV-A71", "assay": "microbe, parasite or virus in culture", "assay_type": "cell-based, enterovirus A71", "details": "for EC50: Enterovirus A"}},
  "note": "Where “and” joins values, the source holds several entries; their conditions need not be identical. Equal entries are not always repeated. Where two headings read alike, the source gives them in different places.",
  "data": [
    {"smiles": "O=C(c1ccco1)N(Cc1ccc(C(F)(F)F)cc1)c1ccccc1", "note": "[Compound 19d, N-phenyl-N-(4-(trifluoromethyl)benzyl)furan-2-carboxamide]", "values": [
      {"measurement": "DAT, Mean (Figure 8B)", "setting": "human DAT; 1µM", "result": 99.9783},
      {"measurement": "DAT, Mean as % (Figure 8B)", "setting": "human DAT; 1µM", "result": 76, "unit": "%"},
      {"measurement": "DAT, Mean (Figure 8B)", "setting": "human DAT; 100µM", "result": 90.1191},
      {"measurement": "DAT, Mean as % (Figure 8B)", "setting": "human DAT; 100µM", "result": 90, "unit": "%"},
      {"measurement": "inhibition of DAT function (in words)", "setting": "human DAT; HEK293 cells expressing human DAT, 1 μM or 100 μM", "result": "neither 12a, 19b, 19d, nor the combined compound 12b inhibited"},
      {"measurement": "SERT, Mean (Figure 8B)", "setting": "human SERT; 1µM, Control = 100.00", "result": 104.62},
      {"measurement": "SERT, Mean as % (Figure 8B)", "setting": "human SERT; 1µM, Control = 100%", "result": 105, "unit": "%"},
      {"measurement": "SERT, Mean (Figure 8B)", "setting": "human SERT; 100µM", "result": 107.21},
      {"measurement": "SERT, Mean as % (Figure 8B)", "setting": "human SERT; 100µM", "result": 107, "unit": "%"},
      {"measurement": "inhibition of SERT-mediated uptake (in words)", "setting": "human SERT; HEK293 cells expressing human SERT, 1 and 100 μM", "result": "neither 12a, 19b, 19d, nor the combined compound 12b inhibited"},
      {"measurement": "EC50", "setting": "CV-B3; CVB3, HAP1, read-out: EC50 Hap1 Average", "result": 750, "unit": "nM"},
      {"measurement": "EC50", "setting": "CV-B3; CVB3, HAP1, read-out: Exp 1 EC50 Hap1", "result": 690, "unit": "nM"},
      {"measurement": "EC50", "setting": "CV-B3; CVB3, HAP1, read-out: Exp 2 EC50 Hap1", "result": 800, "unit": "nM"},
      {"measurement": "resistance of reverse-engineered EV-D68 2C T196S (in words)", "setting": "EV-D68", "result": "provided 19d resistance, although resistance was rather moderate"},
      {"measurement": "resistance of reverse-engineered EV-D68 2C V96M (in words)", "setting": "EV-D68", "result": "provided 19d resistance, although resistance was rather moderate"},
      {"measurement": "multicycle replication assay read-out, EV-D68 Fermon", "setting": "EV-D68; 0.2344 µM", "result": "10 and 12"},
      {"measurement": "multicycle replication assay read-out, EV-D68 Fermon", "setting": "EV-D68; 0.4688 µM", "result": "22 and 14 and 23"},
      {"measurement": "multicycle replication assay read-out, EV-D68 Fermon", "setting": "EV-D68; 0.9375 µM", "result": "10 and 16.5525"},
      {"measurement": "multicycle replication assay read-out, EV-D68 Fermon", "setting": "EV-D68; 1.875 µM", "result": "102.405 and 111.906 and 97.379"},
      {"measurement": "multicycle replication assay read-out, EV-D68 Fermon", "setting": "EV-D68; 3.75 µM", "result": "102.405 and 111.906 and 97.379"},
      {"measurement": "multicycle replication assay read-out, EV-D68 Fermon", "setting": "EV-D68; 7.5 µM", "result": "109.948 and 106.039 and 109.278"},
      {"measurement": "multicycle replication assay read-out, EV-D68 Fermon", "setting": "EV-D68; 15 µM", "result": "109.948 and 106.039 and 109.278"},
      {"measurement": "multicycle replication assay read-out, EV-D68 Fermon", "setting": "EV-D68; 30 µM", "result": "109.948 and 106.039 and 109.278"},
      {"measurement": "EC50", "setting": "EV-D68; EVD68, HeLa R19, […], read-out: EC50 Exp1", "result": 3840, "unit": "nM"},
      {"measurement": "EC50", "setting": "EV-D68; EVD68, HeLa R19, read-out: EC50 EV-D68", "result": "1370 ± 20", "unit": "nM"},
      {"measurement": "EC50", "setting": "EV-D68; EVD68, HeLa R19, read-out: EC50 EV-D68 strain 4310900947", "result": "4600 ± 370", "unit": "nM"},
      {"measurement": "EC50", "setting": "EV-D68; EVD68, HeLa R19, read-out: EC50 EV-D68 strain 4310901348", "result": "3550 ± 430", "unit": "nM"},
      {"measurement": "EC50", "setting": "EV-D68; EVD68, HeLa R19, read-out: EC50 EV-D68 strain 4310902042", "result": "3530 ± 410", "unit": "nM"},
      {"measurement": "EC50", "setting": "EV-D68; EVD68, HeLa R19, read-out: EC50 EV-D68 strain 4310902284", "result": "1820 ± 570", "unit": "nM"},
      {"measurement": "EC50", "setting": "EV-D68; EVD68, HeLa R19, read-out: EC50 EV-D68 strain 4311000742", "result": "3910 ± 130", "unit": "nM"},
      {"measurement": "EC50", "setting": "EV-D68; EVD68 / genotype 2c, HeLa R19, read-out: EC50 EV-D68 WT", "result": "1550 ± 170", "unit": "nM"},
      {"measurement": "EC50", "setting": "HRV-B14; HRVB14, HeLa R19, read-out: EC50 Exp1", "result": 4760, "unit": "nM"},
      {"measurement": "EC50", "setting": "HRV-B14; HRVB14, HeLa R19, read-out: EC50 Exp2", "result": 3610, "unit": "nM"},
      {"measurement": "EC50", "setting": "HRV-B14; HRVB14, HeLa R19, read-out: EC50 HRV-B14", "result": "4190 ± 580", "unit": "nM"},
      {"measurement": "resistance of reverse-engineered EV-A71 2C M193L (in words)", "setting": "EV-A71", "result": "conferred 19d resistance"},
      {"measurement": "resistance of reverse-engineered EV-A71 2C M193L/R151H (in words)", "setting": "EV-A71", "result": "further increased the resistance"},
      {"measurement": "resistance of reverse-engineered EV-A71 2C M193L/R151H/T133S (in words)", "setting": "EV-A71", "result": "slightly further increased resistance"},
      {"measurement": "resistance of reverse-engineered EV-A71 2C R151H (in words)", "setting": "EV-A71", "result": "did not confer resistance"},
      {"measurement": "multicycle replication assay read-out, EV-A71(BrCr)", "setting": "EV-A71; 0.2344 µM", "result": "5.8952 and 4.978 and 5.24"},
      {"measurement": "multicycle replication assay read-out, EV-A71(BrCr)", "setting": "EV-A71; 0.4688 µM", "result": "6.681 and 6.55 and 6.0262"},
      {"measurement": "multicycle replication assay read-out, EV-A71(BrCr)", "setting": "EV-A71; 1.875 µM", "result": "102.314 and 101.266 and 100.218"},
      {"measurement": "multicycle replication assay read-out, EV-A71(BrCr)", "setting": "EV-A71; 3.75 µM", "result": "101.266 and 99.5633 and 96.5502"},
      {"measurement": "multicycle replication assay read-out, EV-A71(BrCr)", "setting": "EV-A71; 7.5 µM", "result": "100.48 and 99.0393 and 95.2402"},
      {"measurement": "multicycle replication assay read-out, EV-A71(BrCr)", "setting": "EV-A71; 15 µM", "result": "94.1921 and 92.2271 and 88.5589"},
      {"measurement": "multicycle replication assay read-out, EV-A71(BrCr)", "setting": "EV-A71; 30 µM", "result": "98.1223 and 94.4541 and 90.524"},
      {"measurement": "EC50", "setting": "EV-A71; EVA71, HeLa R19, read-out: EC50 Average", "result": 1290, "unit": "nM"},
      {"measurement": "EC50", "setting": "EV-A71; EVA71, HeLa R19, read-out: EC50 EV-A71", "result": "270 ± 120", "unit": "nM"},
      {"measurement": "EC50", "setting": "EV-A71; EVA71, HeLa R19, read-out: EC50 EV-A71 strain BrCr", "result": "1680 ± 620", "unit": "nM"},
      {"measurement": "EC50", "setting": "EV-A71; EVA71, HeLa R19, read-out: EC50 EV-A71 strain TW/2728/04", "result": "2330 ± 1230", "unit": "nM"},
      {"measurement": "EC50", "setting": "EV-A71; EVA71, HeLa R19, read-out: EC50 EV-A71 strain TW/2945/98", "result": "2900 ± 1030", "unit": "nM"},
      {"measurement": "EC50", "setting": "EV-A71; EVA71, HeLa R19, read-out: EC50 EV-A71 strain TW/70811/08", "result": "754 ± 10", "unit": "nM"},
      {"measurement": "EC50", "setting": "EV-A71; EVA71, HeLa R19, read-out: EC50 EV-A71 strain TW/72232/04", "result": "2540 ± 1720", "unit": "nM"},
      {"measurement": "EC50", "setting": "EV-A71; EVA71, HeLa R19, read-out: EC50 EV-A71 strain TW/96016/08", "result": "1940 ± 820", "unit": "nM"}
    ]}
  ]
}
